Results taken from PMC8236048, “Pharmaceutical design of a delivery system for the bacteriocin lacticin 3147” (Drug Delivery and Translational Research, 2021).

Tests used:
[1] = system: methicillin-resistant S. aureus (MRSA); conditions: cited from earlier work
Description: (§1) Approximately 223,900 C. difficile infections and 12,800 resulting deaths were reported in the USA in 2017 [17]. Treatment failures and recurrences of infection after the use of antibiotics are increasingly common, with a 2–38% failure rate for vancomycin and 8–50% for metronidazole. A more virulent strain of C. d ...

[2] = system: eukaryotic cells; conditions: cited from earlier work
Description: as §1

[3] = system: L. monocytogenes; conditions: cited from earlier work
Description: as §1

[4] = system: C. difficile; conditions: antimicrobial-resistant bacteria; cited from earlier work
Description: as §1

[5] = system: L. monocytogenes ATCC 1916; assay: Growth curve bioactivity assay versus L. monocytogenes ATCC 1916; format: cell-based; conditions: 0.5 h, 37 °C, 300 rpm, 0.2 µm PES filtered, growth curve 24 h
Procedure: An overnight culture of L. monocytogenes ATCC1916 was grown in TSB media supplemented with 6 g/L yeast at 37 °C. Freeze-dried Ltnα and Ltnβ were resuspended individually in 70% IPA to make a 1-mg/ml solution and filtered through a 0.2-µm filter (polyethersulfone) PES filter. They were then diluted in sterile PBS to a final peptide concentration of 50 µg/ml. Peptide solutions were added in triplicate to a 96-well plate with sufficient PBS to give a volume of 50 µl. 150 µl of diluted bacterial cell culture (optical density (OD) of 0.1 at 595 nm) was then added to the wells. Final peptide concentrations of 150 nM (0.50 µg/ml Ltnα, 0.43 µg/ml Ltnβ), 300 nM (0.99 µg/ml Ltnα, 0.85 µg/ml Ltnβ), and 400 nM (1.31 µg/ml Ltnα, 1.14 µg/ml Ltnβ) were obtained when the wells were filled to 200 µl. Blanks were set up in triplicate with media only and PBS only. The three control wells were also set up with bacterial culture and PBS only. The 96-well plate was incubated in a Biotek ELx808 Ultra microplate reader at 37 °C for 24 h. Readings were taken at a wavelength of 590 nm every 30 min for 24 h with the plate shaken mildly before each reading.
An excess quantity of freeze-dried Ltnα and Ltnβ were resuspended individually in PBS buffer/FaSSGF/FaSSIF. The samples were then incubated for 0.5 h at 37 ± 0.5 °C with stirring at 300 rpm. At the end of the incubation period, samples were filtered through a 0.2-µm PES syringe filter and employed in the in vitro activity assay. Briefly, 25 µl of each of the filtered peptide solutions were added in triplicate to the same wells of a 96-well plate. Three control wells were set up containing 50 µl of PBS alone. 150 μl of L. monocytogenes ATCC 1916 with an OD of 0.1 at 595 nm was added to each well. The 96-well plate was then incubated in a Biotek ELx808 Ultra microplate reader at 37 °C for 24 h. The readings were taken as previously described.

[6] = system: L. monocytogenes ATCC1916; assay: Well diffusion assay after incubation with α-chymotrypsin; format: cell-based
Procedure: α-SLN and β-SLN were filtered using a 0.2-µm PES filter, and 25 µl of each were added to the same well of a 96-well plate. About 50 µl of a 50 mg/ml solution of α-chymotrypsin was added to these wells. A blank was set up with 50-µl water instead of α-chymotrypsin. This was repeated for free peptide solutions prepared as outlined above. The 96-well plate was incubated for 3 h at 37 °C. The 96-well plate was then removed from the incubator, and 25 µl of each solution was added in triplicate to 6-mm wells on TSA (6 g/L yeast) plates inoculated with 200 µl L. monocytogenes ATCC1916. The plates were incubated at 37 °C for 24 h, after which the inhibition zones were measured using an electronic Vernier callipers.

[7] = target: T1, α-chymotrypsin (Bos taurus, UniProt P00766); assay: Enzyme degradation of lacticin 3147 by α-chymotrypsin (activity, MALDI-TOF); format: in vitro ADME; conditions: 25 mg/ml α-chymotrypsin, 3 h, 37 °C; then growth curve at 400 nM peptides
T1 construct: purchased Sigma-Aldrich Ireland Ltd
Procedure: Lacticin 3147 production was confirmed by matrix-assisted laser desorption ionization-time of flight (MALDI-TOF) mass spectrometry using sinapinic acid as the matrix. About 0.7 μl of the matrix solution (sinapinic acid, 4 mg/ml in 50% acetone/50% methanol) was added to the target plate and left to evaporate (30 s) at ambient conditions. Individual peptides (Ltnα or Ltnβ) were resuspended in 70% IPA and mixed at a 1:1 volume ratio with a 10-mg/ml stock solution of sinapinic acid in 60% ACN with 0.1% TFA. About 0.3 μl of this peptide-matrix solution was then added to the matrix layer previously applied to the plate and evaporated at ambient conditions. The plate was inserted into a MALDI-TOF Ultraflex mass spectrometer (Bruker) and analysed using reflectron positive 700–3500 Da mode. 100 shots were fired at 88% intensity. This method was also used for the analyses of samples from the enzyme degradation studies.
Trypsin and α-chymotrypsin stock solutions (50 mg/ml) were resuspended in water. Pepsin (50 mg/ml) was resuspended in 0.02 M HCL. About 1 mg/ml individual solutions of Ltnα and Ltnβ in 70% IPA were filtered and diluted (1 in 20) in sterile PBS to give a final peptide concentration of 50 µg/ml. After this, 5.3 µl Ltnα and 4.6 µl Ltnβ were added to the same well of a 96-well plate. The pH of the lacticin 3147-pepsin solution was 2.29. Control wells consisting of Ltnα and Ltnβ together, Ltnα alone, and Ltnβ alone with no enzyme were included. The 96-well plate was incubated for 3 h at 37 °C to allow the enzyme to act. After incubation, the wells were filled to 50 μl with PBS and 150 μl of diluted bacterial cell culture (L. monocytogenes at an OD of 0.1) was added to each well. The final peptide concentration of 400 nM (1.31 µg/ml Ltnα, 1.14 µg/ml Ltnβ) was obtained when the wells were filled to 200 µl. […] The effect of the proteases pepsin, α-chymotrypsin, and trypsin on the lacticin 3147 peptides was determined by MALDI-TOF mass spectrometry. […] After 3 h, 1 µl was removed from each sample and it was analysed by MALDI-TOF mass spectrometry. […]

lacticin 3147
activity against methicillin-resistant S. aureus (MRSA) [1]: active at nanomolar concentrations | toxicity to eukaryotic cells [2]: non-toxic | activity against L. monocytogenes [3]: active at nanomolar concentrations | activity against C. difficile [4]: active at nanomolar concentrations | activity against L. monocytogenes ATCC 1916 after addition in excess to FaSSGF and filtration ([5]; FaSSGF (pH 1.6)): active | activity against L. monocytogenes ATCC 1916 after addition in excess to FaSSIF and filtration ([5]; FaSSIF (pH 6.5)): active | activity against L. monocytogenes ATCC 1916 after addition in excess to PBS and filtration ([5]; PBS (pH 7.4)): active | zone of inhibition after incubation with α-chymotrypsin, single well ([6]; Fig. 11, first value printed in the picture of the plate): 6 mm | zone of inhibition after incubation with α-chymotrypsin, single well ([6]; Fig. 11, second value printed in the picture of the plate): 6.1 mm | zone of inhibition after incubation with α-chymotrypsin, single well ([6]; Fig. 11, third value printed in the picture of the plate): 6 mm | activity against L. monocytogenes ATCC 1916 after incubation with α-chymotrypsin [7]: growth curve similar to that of the bacterial control
